# “Also recorded” adds a separate entry of the source.
# How the values were obtained:
# healthy rats = conditions: intracerebroventricular injection 10 μg/5 μL; cited from earlier work
# rats = conditions: cited from earlier work
# rats with SNI = experiment: Mechanical allodynia (von Frey test) after spared nerve injury; assay type: in vivo, male Wistar rats
# Procedure: (§1) Animals. The experiments were performed on male Wistar rats weighing 250 g (six weeks). All animals were housed in standardized animal facilities under a 12 h light/dark cycle (lights on at 7 AM) with ad libitum access to food and water. All surgeries and experimental procedures were performed during the light cycle. Experimental protocols were approved by the Animal Ethics Committee of the local institutional committee for animal use and care (McGill University, Qc, Canada). These protocols follow ethical guidelines for investigation of experimental pain in conscious animals of the IASP, the Canadian Institute of Health Research guidelines for animal care and scientific use.
# (§2) Spared nerve injury (SNI). SNI was performed according to the method of Decosterd and Woolf^35. Rats were deeply anaesthetized with isofluorane (5%), anaesthesia was confirmed by the absence of a nociceptive reflex reaction to a paw pinch. The sciatic nerve was exposed at mid-thigh level distal to the trifurcation and freed of connective tissue; the three peripheral branches (sural, common peroneal, and tibial nerves) of the sciatic nerve were exposed without stretching nerve structures. Both tibial and common peroneal nerves were ligated and transected together. Carprofen (5 mg/kg) was administrated subcutaneously pre-surgery as well as three days every 24 hours post-surgery as analgesic. After SNI, each rat was housed in its home cage for 15 days until the neuropathy is developed.
# Mechanical allodynia. On day 15 after SNI, mechanical allodynia was assessed via von Frey test^38. Rats were placed in a test chamber, and they were allowed to acclimate for 60 minutes. Tactile allodynia was determined by measuring paw withdrawal thresholds in response to mid-plantar hind paw stimuli with Calibrated von Frey filaments^36. These filaments are of a logarithmically incremental stiffness corresponding to an applied force ranging from 0.4 to 15 g. Every filament was applied during 10 seconds in the hind paw to measure the withdrawal threshold. The 2.0 g force filament was applied first; in the presence of a response, the next smaller filament was applied. In the absence of a response, the next higher filament was applied. After the first change in response, the test continued until six responses were collected. The paw withdrawal threshold was then converted to the cutaneous nociceptive threshold by using the “up-down” method^39. The stimulus intensity (filament stiffness) required to produce a response in 50% of the applications for each animal was defined as 50% withdrawal threshold (expressed in g). The 50% withdrawal threshold was determined according to the following equation: 50% Threshold (g)=(10^ [Xf+kδ])/10,000. Where Xf is the value of the last von Frey filament used (in logarithmic units), k is the correction factor based on the response patterns of a calibration table and the tabulated value based on the pattern of positive and negative responses, and δ indicates the average differences between stimuli in logarithmic units^38,39. In non-lesioned animals (naïve) a value 11.98-15 g was considered normal, while the presence of allodynia was considered when the 50% withdrawal threshold of the limb is less than 4 g. All nerve-ligated rats were verified to be allodynic before the experiments. Rats without allodynia were excluded.
# neuropathic rats [1] = experiment: EEG/EMG recording of wakefulness, NREM and REM sleep in neuropathic rats; assay type: in vivo, male Wistar rats
# Procedure: as §1, §2
# EEG/EMG Implantation. Neuropathic rats (10 days after surgery) and naïve rats were placed in a stereotaxic frame following isoflurane-induced anesthesia (5%). Anaesthesia was confirmed by the absence of a nociceptive reflex reaction to a paw pinch. For EEG monitoring, three stainless-steel epidural electrodes were positioned through 1.5 mm burr holes: one over the parietal cortex on each side, and the third (as a reference) in the right prefrontal cortex. In rats, their respective locations relative to bregma were −2 mm anteroposterior (AP) and −3 mm lateral (L), −7 mm AP and −3 mm L, and −4.5 mm AP and +3 mm L, according to Paxinos and Watson. For EMG monitoring, three flexible stainless-steel wire electrodes, silicon insulation removed at the terminal 3-4 mm, were implanted into the neck muscles (two bilaterally and one in the middle). Wires were fused with the electrodes and the connectors were fixed to the skull with dental acrylic (Coltene/Whaledent). Carprofen (10mg/kg) was administrated subcutaneously pre-surgery as well as three days every 24 hours post-surgically as analgesic. Each rat was single-caged post-surgery and allowed to recover for the next 5 days^13. 24 hours after surgery, the rats were placed in the recording chamber and connected to a flexible 6-flat wire (3M Scotchflex™) in a freely moving manner for several hours during the subsequent 5 days. No recordings were performed, but tolerance to the cable and sleep behavior were observed. All rats from a home cage were also grouped for one hour each day for socialization to circumvent anxious-depressive-like behavior induced by social isolation^13.
# Study design for EEG and EMG assessment. […] […] In another cohort of rats rimonabant (1 mg/kg) was also injected i.p. at 6 A.M. in neuropathic rats.
# EEG and EMG recording. Six days after surgery (16 days post-SNI), mechanical allodynia was assessed via von Frey test, and EEG/EMG was recorded for a period of 6 h (from 6 AM to 12 PM). The treatments (described below) were performed at 6:00 A.M., right after the recording had started. […] Consecutive 10 s epochs were subjected to a fast Fourier transform (FFT), and EEG power spectra density was computed in the frequency range of 0-64 Hz^13.
# Analysis of EEG and EMG data. The three classical vigilance states as described in the rat were discriminated on the basis of the cortical EEG and neck EMG activities. […]
# neuropathic rats [2] = experiment: Sleep fragmentation analysis (Sleep Fragmentation Index); assay type: in vivo, male Wistar rats; conditions: NP rats; CBD 20 mg/kg i.p.; vs NP+VEH
# Procedure: Sleep fragmentation analysis. Sleep Fragmentation Index (SFI) is determinant of excessive daytime sleepiness as it is characterized by repetitive short interruptions of sleep by periods of wakefulness. […] In this study, SFI is calculated as the total number of wakefulness episodes in 24 h divided by the total sleep time in hours during 24 h (REM+NREM).
# naïve animals = conditions: cited from earlier work
# [3] = 6 h EEG/EMG, i.p., CBD 20 mg/kg, WAY 100635 2 mg/kg
# [4] = NP rats, 6 h EEG/EMG, i.p., CBD 20 mg/kg, rimonabant 1 mg/kg
# [5] = naïve animals, acute systemic 20 mg/kg
smiles,measurement,setting,value
"C=C(C)[C@@H]1CCC(C)=C[C@H]1c1c(O)cc(CCCCC)cc1O [CBD, 2-[(1R,6R)-3-methyl-6-prop-1-en-2-ylcyclohex-2-en-1-yl]-5-pentylbenzene-1,3-diol]",REM sleep,healthy rats,decrease in REM sleep
same,wakefulness,healthy rats,increase in wakefulness
same,increase in SWS duration,rats; CBD dose of 40 mg/kg,not statistically significant
same,total percentage of sleep,rats; CBD doses of 10 and 40 mg/kg,significantly increased
same,AUC of the antiallodynic effect,rats with SNI; 10 mg/kg vs 20 mg/kg,not statistically different
same,AUC of the antiallodynic effect,rats with SNI; 20 mg/kg group vs CBD 5 mg/kg (p<0.001) and vs vehicle (p<0.001),significantly higher
same,antiallodynic effect,"rats with SNI; SNI rats, 5 mg/kg i.p.",did not show any antiallodynic effect
same,reversal of mechanical allodynia,"rats with SNI; SNI rats, 10 mg/kg i.p., between 2 h and 4.5 h (p<0.05)",able to reverse mechanical allodynia
same,reversal of mechanical allodynia,"rats with SNI; SNI rats, 20 mg/kg i.p., between 1 h and 5 h (p<0.05)",able to reverse mechanical allodynia
same,"paw withdrawal threshold / mechanical allodynia, dose dependence","rats with SNI; SNI rats, CBD 5, 10 and 20 mg/kg intraperitoneally, 0.5-7.5 hours, vs vehicle",increasing the paw withdrawal threshold in a dose-dependent manner; also recorded: reduces mechanical allodynia in a dose-dependent manner; also recorded: reduces neuropathic pain
same,duration of antiallodynic effects post-administration,"rats with SNI; SNI rats, CBD i.p.",up to 4 hours
same,"total NREM sleep, relative to NP rats treated with vehicle",neuropathic rats [1]; [3],able to reverse NREM sleep impairments; also recorded: restored NREM sleep
same,"total time of wakefulness, relative to NP rats treated with vehicle",neuropathic rats [1]; [3],decrease in the amount of time spent in wakefulness; also recorded: decreased wakefulness
same,"REM sleep (total time), relative to NP rats treated with vehicle","neuropathic rats [1]; 6 h EEG/EMG, i.p., CBD 20 mg/kg, WAY 100635 2 mg/kg, rimonabant 1 mg/kg",restored the normal REM sleep
same,"NREM sleep, relative to naïve animals treated with vehicle","neuropathic rats [1]; NP rats, 6 h EEG/EMG, CBD 20 mg/kg i.p.",no difference was detected
same,"REM sleep, relative to naïve animals treated with vehicle",neuropathic rats [1]; [4],no difference was detected
same,"wakefulness, relative to naïve animals treated with vehicle",neuropathic rats [1]; [4],no difference was detected
same,reversal of sleep perturbations induced by neuropathic pain (sleep-wake cycle),"neuropathic rats [1]; NP rats, i.p., CBD 20 mg/kg, rimonabant 1 mg/kg",Reverses the Sleep Perturbations; also recorded: restored the normal sleep-wake cycle; also recorded: restores the impaired sleep in a dose-dependent manner
same,"sleep fragmentation (sleep fragmentation index, SFI)",neuropathic rats [2],decrease of the sleep fragment index (SFI) to normal levels; also recorded: attenuates the sleep fragmentation
same,sleep duration and sleep parameters,naïve animals; [5],no significant effect
same,slow-wave sleep (SWS) latency,naïve animals; [5],reduced slow-wave sleep (SWS) latency
same,REM sleep,naïve animals; single doses of 40 mg/kg,without affecting REM sleep
same,SWS,naïve animals; single doses of 40 mg/kg,increased SWS
same,SWS latency,naïve animals; single doses of 40 mg/kg,decreased SWS latency

# Source: patent US20230172874A1, “USE OF CANNABIDIOL FOR THE TREATMENT OF INSOMNIA ASSOCIATED TO PAIN” (priority 2021, published 2023)
